We go through one compound from patent publication US9663429B2, “Vitamin D analogues of pharmaceutical interest” (UNIVERSIDADE DE SANTIAGO DE COMPOSTELA, priority 2013, dated 2017).

Molecules are shown by their SMILES. pEC50, pIC50: −log10 of the molar value.

Series [1] deals with MCF-7 cells. Description: 3D cell culture on matrigel (spheroid size), MCF-7. The series is classed as cell-based, human. How it is done: FIG. 7. MCF-7 cells were shown for 10 days on a matrigel bed until they formed a 3D cellular structure. […] After treatment, the spheroids were stained with DAPI (4′,6-diamino-2-phenylindole) for 1 hour and photographed under an inverted microscope with ultraviolet light. The size of these spheroids was measured and the values were represented as mean±SD in relative units. […] Those cells treated with the carrier were considered as the control value.
For 3D cell culture, a cushion of 200 μl of Matrigel (BD Biosciences) was used in each of the wells of multi-well plates of 24 wells. They were incubated at 37° C. for 20 minutes for their solidification and subsequently the cell suspension (5×10^3 cells per 100 μl volume of medium) was loaded onto the matrigel solidified and another incubation at 37° C. was performed for 30 minutes so that the cells penetrated properly on the matrigel base. 500 μl of DMEM medium were added to each well, and the cells were maintained in culture for 10 days. At the end of this time, the cells were started to be treated with each of the 5 analogues used and 1,25D.

Series [2] deals with PC-3 cells. Description: MTT proliferation assay, PC-3. As to conditions: 10^−7 M, 48 hours, 100% control cells. (Tetrazolium dyes change colour on reduction, which living cells bring about.)
Description: Proliferation assay in the PC-3 cell line of human prostate adenocarcinoma. […] The values were plotted in the graphs as mean±SD. As proliferation value, 100% was considered the normal growth of PC-3 cells treated with the carrier in the control.
(§3) The cells were cultured in 90-mm plates in essential culture medium DMEM, supplemented with 10% bovine foetal serum free of steroid hormones, 100 U/ml penicillin, 100 μg/ml streptomycin and 2 mM non-essential amino acids (L-glutamine) at 37° C. in a humid atmosphere O2/CO2 (95/5%).
(§4) The first is an indirect method for determining living cells, wherein the yellow water soluble MTT is reduced in mitochondria, thus generating a purple insoluble product (formazan). […] After this time, the culture medium was removed and 500 μl of dimethylsulfoxide (DMSO) was added to each well to solubilise the formazan incorporated by the cells.
Series [3] has as its system SKOV-3 cells. Description: MTT proliferation assay, SKOV-3. As to conditions: 10^−7 M, 48 hours, 100% control cells.
Description: Proliferation assay in the SKOV-3 cell line of human ovary adenocarcinoma. […] The values were plotted in the graphs as mean±SD. As proliferation value, 100% was considered the normal growth of SKOV-3 cells treated with the carrier in the control.
as §3, §4
The target in series [4] is T1, vitamin D receptor (VDR) (Homo sapiens, UniProt P11473).
T1 construct: purchased Invitrogen
T1 sequence (P11473 1-427): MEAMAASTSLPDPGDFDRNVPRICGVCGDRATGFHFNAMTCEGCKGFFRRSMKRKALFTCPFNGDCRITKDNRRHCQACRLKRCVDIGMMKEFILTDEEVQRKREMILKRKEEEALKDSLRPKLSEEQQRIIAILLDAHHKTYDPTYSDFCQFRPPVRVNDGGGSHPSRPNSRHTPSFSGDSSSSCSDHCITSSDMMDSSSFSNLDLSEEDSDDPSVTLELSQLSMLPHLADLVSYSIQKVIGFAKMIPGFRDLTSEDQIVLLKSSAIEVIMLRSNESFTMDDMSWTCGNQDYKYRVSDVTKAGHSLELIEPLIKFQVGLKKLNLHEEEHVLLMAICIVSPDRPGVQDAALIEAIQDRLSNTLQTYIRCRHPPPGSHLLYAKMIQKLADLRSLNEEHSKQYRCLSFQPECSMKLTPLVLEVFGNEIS
Description: Competitive binding to vitamin D receptor (Polarscreen VDR competitor assay, fluorescence polarisation). How it is done: FIG. 1. […] The values represent the mean of at least two experiments.
Polarised fluorescence was determined in 384-well black plates for 200 ms/well using a Mithras LB 940 device (Berthold Technologies).
Background: Polarisation of emitted light reports the rotation of a fluorescent probe.

For series [5], the system named is MCF-7 cells. Description: MTT proliferation assay, MCF-7. As to conditions: 10^−7 M, 48 hours, 100% control cells.
Description: Proliferation assay in the MCF-7 cell line of human breast adenocarcinoma. […] The values were plotted in the graphs as mean±SD. As proliferation value, 100% was considered the normal growth of MCF-7 cells treated with the carrier in the control.
as §3
Cell proliferation/toxicity in breast cancer lines was assessed by both incorporation assays of 3-(4,5-dimethylthiazol-2-yl)-2,5-difeniltetrazolium (MTT) bromide and cell culture in three dimensions (3D).
as §4
Series [6] deals with MCF-7-Luc cells. Description: In vivo anti-tumour activity, MCF-7-Luc tumours in SCID mice. As to conditions: 5 μ/kg ip every 2 days for 28 days, p≦0.05. How it is done: FIG. 12. In this figure the results obtained by treating a group of 32 mice with the analogue PG136 after being injected with MCF-7-Luc cells are shown.
(§1) In order to study the anti-tumour activity of the analogue PG136 in vivo, 32 immunosuppressed CB17-Prkdc^scid 8 weeks old female mice were used, called SCID (PRBB, Barcelona, Spain). These mice were injected subcutaneously with 5×10^6 breast tumour cells MCF-7 and MDA-MB-231 stably transfected with plasmid pcDNA3-Luciferase coding for the gene of the luciferase (called MCF-7-Luc and MDA-MB-231-Luc). Two groups of 8 mice were injected with cells MCF-7-Luc and other 2 groups of 8 mice with MDA-MB-231-Luc cells. Fifteen days after injection, the mice were started to be treated intraperitoneally every 2 days for 28 days with the analogue PG136 at a dose of 5 μ/kg dissolved in sesame oil used as carrier. The control group is treated in the same way and with the same range with sesame oil. Tumour size is determined every seven days once started the treatment using an in vivo imaging system (IVIS, Caliper Life Sciences, Alameda, USA), and the tumour size is calculated using a map of intensities retrieved using the Living Image (Caliper Life Sciences) software. In the case of the 2 groups of mice injected with MDA-MB-231-Luc cells, the experiment continued until day 60 and Kaplan-Meier Survival estimates were made.

Series [7] is described as follows: Body weight of mice in the dose-response assay. Type of series: in vivo. As to conditions: mice, 0.1, 0.5, 1 and 5 μg/kg ip every 2 days for 21 days. How it is done:
FIG. 10. […] 1,25D (dose of 0.3 μg/kg) and analogues (doses of 0.1, 0.5, 1 and 5 μg/kg) were injected intraperitoneally every 2 days for 21 days. Animals were weighed every two days during treatment. The values were represented as mean±SD in […].
In this experiment, also the weight of the animals was quantified to determine whether there was any modification throughout the treatment.

Series [8] in a line: Calcaemic effects in mice at 0.3 μg/kg. Type of series: in vivo. How it is done:
FIG. 8. […] 1,25D and the various analogues were injected intraperitoneally every 2 days for 21 days at a dose of 0.3 μg/Kg. After treatment the calcium levels in the serum were evaluated and the values were represented as mean±SD in […].
(§2) Calcium mobilization of analogues was determined in 28 male CD-1 mice (6-8 weeks old). 6 Groups of 4 mice each were established, which mice were intraperitoneally (ip) injected with 0.3 μg/kg weight of each analogue or 1,25D dissolved in sesame oil every two days for 3 weeks. A seventh group of 4 mice treated with the carrier (sesame oil) served as controls. Calcium levels in blood were determined by QuantiChomCalciumAssay Kit (BioAssaySystems, Hayward, Calif., USA). In addition, a dose-response assay was performed to assess the effect of administration of the analogues PG-403 and PG136p and hormone (1,25D) at different doses on calcium levels. This assay was performed in male mice (5 mice per group), and the doses used were: 0.1, 0.5, 1, and 5 μg/kg weight of each analogue or 1,25D, i.p. administered every two days for 21 days. In addition, a control group (mice treated with sesame oil) was used.

Series [9] relates to HaCaT cells. Description: MTT proliferation assay, HaCaT. As to conditions: 10^−7 M, 48 hours, 100% control cells.
Description: Proliferation assay in the HaCaT cell line of human keratinocytes. […] The values were plotted in the graphs as mean±SD. As proliferation value, 100% was considered the normal growth of HaCaT cells treated with the carrier in the control.
as §3, §4
A short description of series [10]: Dose-response assay of serum calcium in mice. As to conditions: for Serum calcium versus controls, analogues: doses 0.1, 0.5, 1 and 5 μg/kg ip every 2 days for 21 days. Type of series: in vivo. How it is done:
FIG. 9. […] 1,25D (dose of 0.3 μg/kg) and analogues (doses of 0.1, 0.5, 1 and 5 μg/kg) were injected intraperitoneally every 2 days for 21 days. After treatment the calcium levels in the serum were evaluated and the values were represented as mean±SD in […].
as §2

Series [11] deals with 24-hydroxylase promoter, CYP24A1 (pCYP24A1-Luc). Description: Transactivation reporter assay (pCYP24A1-Luc) in MCF-7 cells. (Reporter assays use an easily measured gene product as a stand-in for the process of interest.)
Description: MCF-7 cells were transfected with the reporter vector of 24-hydroxylase (pCYP24A1-Luc vector) for 24 hours. […] The experiments were performed at least twice. The error bars represent the standard deviation (SD).
Series [12] has as its system MDA-MB-231-Luc cells. Description: In vivo anti-tumour activity, MDA-MB-231-Luc tumours in SCID mice.
Description: FIG. 13. In this figure the results obtained by treating a group of 32 mice with the analogue PG136 after being injected with MDA-MB-231-Luc cells are shown.
FIG. 14. The survival rate of mice treated with the analogue PG136 after being injected with MDA-MB-231-Luc cells is shown and compared with control mice.
as §1, with “In the case of the 2 groups of mice injected with MDA-MB-231-Luc cells, the experiment continued until day 60 and Kaplan-Meier Survival estimates were made.” left out

Usually pIC50 stands for −log10 of the IC50, conventionally taken in molar units. By pEC50 is commonly meant −log10 of the EC50, conventionally taken in molar units. `C=C1/C(=C\C=C(/CC)c2cccc(CCCCCC(C)(C)O)c2)C[C@@H](O)C[C@@H]1O` [PG-136p, (1R,3S,Z)-5-((E)-3-(3-(6-hydroxy-6-methylheptyl)phenyl)pent-2-enyliden)-4-methylenecyclohexane-1,3-diol]: in [1] (10^−7 M for 7 days), the “Three-dimensional growth of MCF-7 spheroids (in words)” value was “inhibit the three-dimensional growth, similarly to 1,25D”. Moreover, the “Cell proliferation percentage MCF-7 3D” value in [1] (10^−7 M, matrigel spheroids, 100% control cells) stood at 69%. In addition, the “Cell proliferation percentage PC-3 2D” value in series [2] worked out at 78%. In series [3], the “Cell proliferation percentage SKOV-3 2D” value worked out at 78%. Further, the “Binding to VDR % relative to 1,25D (100%)” value in series [4] (activity relative to natural hormone 1,25D normalised at 100%) was determined as 24%. In addition, the pIC50 in series [4] (competitive displacement, 10^−11 to 10^−5 M) was 8.15. In addition, the “Cell proliferation percentage MCF-7 2D” value in series [5] was 65%. Further, the “Tumour volume versus control group” value in series [6] is “smaller volume”; in series [12] (5 μ/kg ip every 2 days for 28 days, p≦0.0001), “smaller volume”. Besides, the “Body weight versus control animals, analogues” value in [7] is “does not change the body weight”; in [7] (listed as PG136p) it was “did not significantly affect the body weight”. Moreover, the “Hypercalcemia (serum calcium versus control)” value in series [8] (0.3 μg/Kg ip every 2 days for 21 days) is recorded as “does not produce hypercalcemia”. Also, the “Calcaemic activity: blood calcium in percentage over that induced by 1,25D” value in [8] (ip every two days for 21 days, 0.3 μg/kg (table title prints 0.3 mg/kg)) was 0%. Further, in [9], the “Cell proliferation percentage HaCaT 2D” value is on record as 68%. For the same compound, in [10] (5 μg/kg weight ip every two days for 21 days), the “Serum calcium versus control animals (placebo)” value is “did not significantly raise serum calcium”. Further, the “Serum calcium versus controls, analogues” value in [10] was “does not produce hypercalcemia”; in series [10] (listed as PG136p), “None of the two analogues tested (PG136p and PG-403) induces increased serum calcium”. For the same compound, in series [11] (Homo sapiens, MCF7, 24 h, read-out: Transcriptional activity EC50), the pEC50 was 8.22. Also, the “Transcriptional activity % relative to 1,25D (100%)” value in series [11] (MCF-7 cells, pCYP24A1-Luc) turned out to be 33%. Also, the “Survival rate versus control mice (Kaplan-Meier)” value in [12] (until day 60, p=0.042) is given as “higher survival rate”.
